In patent US6723837B1, “Nucleic acid molecule and encoded protein associated with sterol synthesis and metabolism” (Monsanto Technology LLC, priority 1999, dated 2004):

System: wild type yeast LPY9
Experiment: RNA abundance on yeast ORF array after ketoconazole treatment vs control without ketoconazole
Format: cell-based
Conditions: LPY9, 2 hr, vs untreated LPY9
Procedure: The yeast strain LPY9 (MATa, leu2, Ura3, his3) is grown overnight and inoculated into SD+ hul (histidine, uracil, leucine) media. Aliquots of the culture are treated with ketoconazole (an inhibitor of C-14α demethylase (P45014DM) enzyme) at 10 ug/ml, 50 ug/ml, and 100 ug/ml, corresponding to 10 ppm, 50 ppm, and 100 ppm, respectively. A sample of each is collected at 2, 4, and 6 hours after treatment. Control samples treated with DMSO (dimethyl sulfoxide-solvent for ketoconazole) but not with ketoconazole are also collected. Total RNA from each sample is collected by conventional methods, such as a Zirconium/Silica bead binding and extraction method. The sequence content of each sample is analyzed and compared by hybridizing each of them to a number of yeast ORF sequences immobilized on a Nylon membrane in an array format.
Table 2, below, lists the RNAs in each sample whose abundance is effected by ketoconazole treatment or whose abundance differs between wild type and the double mutant strain. The table also lists the corresponding gene or sequence identifier for those RNAs. The RNAs are ranked by the ratio of either ketocanozole vs. control or mutant vs. control, using the ratio of 50 ppm ketocanozole/control as a basis for comparison.

Compound: CC(=O)N1CCN(c2ccc(OCC3COC(Cn4ccnc4)(c4ccc(Cl)cc4Cl)O3)cc2)CC1 (centres unmarked) [ketoconazole]
- K-50/CK expression level ratio: YAL001C (TFC3) (50 micro gram/ml): 0.4743
- K-50/CK expression level ratio: YAL013W (DEP1) (50 micro gram/ml): 5.546
- K-50/CK expression level ratio: YAL048C (50 micro gram/ml): 2.138
- K-50/CK expression level ratio: YAR044W (OSH1) (50 micro gram/ml): 3.625
- K-50/CK expression level ratio: YBL005W (PDR3) (50 micro gram/ml): 4.145
- K-50/CK expression level ratio: YBL008W (HIR1) (50 micro gram/ml): 2.828
- K-50/CK expression level ratio: YBR119W (MUD1) (50 micro gram/ml): 2.405
- K-50/CK expression level ratio: YBR289W (SNF5) (50 micro gram/ml): 2.688
- K-50/CK expression level ratio: YCL037C (SRO9) (50 micro gram/ml): 2.786
- K-50/CK expression level ratio: YCR048W (ARE1) (50 micro gram/ml): 6.104
- K-50/CK expression level ratio: YCR084C (TUP1) (50 micro gram/ml): 2.922
- K-50/CK expression level ratio: YDL088C (ASM4) (50 micro gram/ml): 4.176
- K-50/CK expression level ratio: YDR052C (DBF4) (50 micro gram/ml): 2.404
- K-50/CK expression level ratio: YDR088C (SLU7) (50 micro gram/ml): 2.734
- K-50/CK expression level ratio: YDR211W (GCD6) (50 micro gram/ml): 2.484
- K-50/CK expression level ratio: YDR213W (50 micro gram/ml): 32.14
- K-50/CK expression level ratio: YDR253C (MET32) (50 micro gram/ml): 0.3397
- K-50/CK expression level ratio: YDR264C (AKR1) (50 micro gram/ml): 2.198
- K-50/CK expression level ratio: YDR389W (SAC7) (50 micro gram/ml): 4.561
- K-50/CK expression level ratio: YDR422C (SIP1) (50 micro gram/ml): 2.187
- K-50/CK expression level ratio: YFL054C (50 micro gram/ml): 0.4794
- K-50/CK expression level ratio: YFR009W (GCN20) (50 micro gram/ml): 2.486
- K-50/CK expression level ratio: YFR034C (PHO4) (50 micro gram/ml): 11.22
- K-50/CK expression level ratio: YGL001C (50 micro gram/ml): 2.821
- K-50/CK expression level ratio: YGL014W (50 micro gram/ml): 3.229
- K-50/CK expression level ratio: YGL071W (RCS1) (50 micro gram/ml): 3.696
- K-50/CK expression level ratio: YGL112C (TAF60) (50 micro gram/ml): 2.077
- K-50/CK expression level ratio: YGL192W (IME4) (50 micro gram/ml): 3.17
- K-50/CK expression level ratio: YGR177C (ATF2) (50 micro gram/ml): 11.83
- K-50/CK expression level ratio: YGR270W (YTA7) (50 micro gram/ml): 2.406
- K-50/CK expression level ratio: YHL027W (RIM101) (50 micro gram/ml): 2.103
- K-50/CK expression level ratio: YIL084C (SDS3) (50 micro gram/ml): 5.543
- K-50/CK expression level ratio: YIR017C (MET28) (50 micro gram/ml): 0.3775
- K-50/CK expression level ratio: YJL127C (SPT10) (50 micro gram/ml): 7.839
- K-50/CK expression level ratio: YJR017C (ESS1) (50 micro gram/ml): 3.559
- K-50/CK expression level ratio: YJR019C (TES1) (50 micro gram/ml): 2.83
- K-50/CK expression level ratio: YKR034W (DAL80) (50 micro gram/ml): 5.044
- K-50/CK expression level ratio: YLR098C (CHA4) (50 micro gram/ml): 4.756
- K-50/CK expression level ratio: YLR120C (YAP3) (50 micro gram/ml): 3.623
- K-50/CK expression level ratio: YLR153C (ACS2) (50 micro gram/ml): 3.379
- K-50/CK expression level ratio: YLR249W (YEF3) (50 micro gram/ml): 3.145
- K-50/CK expression level ratio: YMR019W (STB4) (50 micro gram/ml): 3.441
- K-50/CK expression level ratio: YMR037C (MSN2) (50 micro gram/ml): 6.424
- K-50/CK expression level ratio: YMR047C (NUP116) (50 micro gram/ml): 3.17
- K-50/CK expression level ratio: YMR080C (NAM7) (50 micro gram/ml): 2.183
- K-50/CK expression level ratio: YMR146C (TIF34) (50 micro gram/ml): 0.2248
- K-50/CK expression level ratio: YNR019W (ARE2) (50 micro gram/ml): 1.791
- K-50/CK expression level ratio: YOL067C (RTG1) (50 micro gram/ml): 10.03
- K-50/CK expression level ratio: YOR127W (RGA1) (50 micro gram/ml): 2.532
- K-50/CK expression level ratio: YOR237W (HES1) (50 micro gram/ml): 1418
- K-50/CK expression level ratio: YOR337W (TEA1) (50 micro gram/ml): 2.979
- K-50/CK expression level ratio: YPL028W (ERG10) (50 micro gram/ml): 2.019
- K-50/CK expression level ratio: YPL119C (DBP1) (50 micro gram/ml): 3.246
- K-50/CK expression level ratio: YPL226W (50 micro gram/ml): 2.889
- K-50/CK expression level ratio: YPL237W (SUI3) (50 micro gram/ml): 2.563
- K-50/CK expression level ratio: YPR080W (TEF1) (50 micro gram/ml): 2.212
- K-100/CK expression level ratio: YAL001C (TFC3) (100 micro gram/ml): 1.192
- K-100/CK expression level ratio: YAL013W (DEP1) (100 micro gram/ml): 6.425
- K-100/CK expression level ratio: YAL048C (100 micro gram/ml): 4.221
- K-100/CK expression level ratio: YAR044W (OSH1) (100 micro gram/ml): 3.884
- K-100/CK expression level ratio: YBL005W (PDR3) (100 micro gram/ml): 6.083
- K-100/CK expression level ratio: YBL008W (HIR1) (100 micro gram/ml): 2.887
- K-100/CK expression level ratio: YBR119W (MUD1) (100 micro gram/ml): 1.399
- K-100/CK expression level ratio: YBR289W (SNF5) (100 micro gram/ml): 3.039
- K-100/CK expression level ratio: YCL037C (SRO9) (100 micro gram/ml): 2.394
- K-100/CK expression level ratio: YCR048W (ARE1) (100 micro gram/ml): 10.53
- K-100/CK expression level ratio: YCR084C (TUP1) (100 micro gram/ml): 3.272
- K-100/CK expression level ratio: YDL088C (ASM4) (100 micro gram/ml): 3.321
- K-100/CK expression level ratio: YDR052C (DBF4) (100 micro gram/ml): 1.583
- K-100/CK expression level ratio: YDR088C (SLU7) (100 micro gram/ml): 2.688
- K-100/CK expression level ratio: YDR211W (GCD6) (100 micro gram/ml): 1.824
- K-100/CK expression level ratio: YDR213W (100 micro gram/ml): 58.36
- K-100/CK expression level ratio: YDR253C (MET32) (100 micro gram/ml): 0.3279
- K-100/CK expression level ratio: YDR264C (AKR1) (100 micro gram/ml): 2.752
- K-100/CK expression level ratio: YDR389W (SAC7) (100 micro gram/ml): 4.314
- K-100/CK expression level ratio: YDR422C (SIP1) (100 micro gram/ml): 2.084
- K-100/CK expression level ratio: YFL054C (100 micro gram/ml): 0.6137
- K-100/CK expression level ratio: YFR009W (GCN20) (100 micro gram/ml): 2.161
- K-100/CK expression level ratio: YFR034C (PHO4) (100 micro gram/ml): 20.84
- K-100/CK expression level ratio: YGL001C (100 micro gram/ml): 1.985
- K-100/CK expression level ratio: YGL014W (100 micro gram/ml): 3.638
- K-100/CK expression level ratio: YGL071W (RCS1) (100 micro gram/ml): 4.531
- K-100/CK expression level ratio: YGL112C (TAF60) (100 micro gram/ml): 2.189
- K-100/CK expression level ratio: YGL192W (IME4) (100 micro gram/ml): 6.478
- K-100/CK expression level ratio: YGR177C (ATF2) (100 micro gram/ml): 12.56
- K-100/CK expression level ratio: YGR270W (YTA7) (100 micro gram/ml): 1.946
- K-100/CK expression level ratio: YHL027W (RIM101) (100 micro gram/ml): 2.593
- K-100/CK expression level ratio: YIL084C (SDS3) (100 micro gram/ml): 6.907
- K-100/CK expression level ratio: YIR017C (MET28) (100 micro gram/ml): 0.3009
- K-100/CK expression level ratio: YJL127C (SPT10) (100 micro gram/ml): 10.1
- K-100/CK expression level ratio: YJR017C (ESS1) (100 micro gram/ml): 3.221
- K-100/CK expression level ratio: YJR019C (TES1) (100 micro gram/ml): 2.072
- K-100/CK expression level ratio: YKR034W (DAL80) (100 micro gram/ml): 7.284
- K-100/CK expression level ratio: YLR098C (CHA4) (100 micro gram/ml): 5.587
- K-100/CK expression level ratio: YLR120C (YAP3) (100 micro gram/ml): 4.43
- K-100/CK expression level ratio: YLR153C (ACS2) (100 micro gram/ml): 3.129
- K-100/CK expression level ratio: YLR249W (YEF3) (100 micro gram/ml): 2.632
- K-100/CK expression level ratio: YMR019W (STB4) (100 micro gram/ml): 3.398
- K-100/CK expression level ratio: YMR037C (MSN2) (100 micro gram/ml): 7.661
- K-100/CK expression level ratio: YMR047C (NUP116) (100 micro gram/ml): 4.774
- K-100/CK expression level ratio: YMR080C (NAM7) (100 micro gram/ml): 2.171
- K-100/CK expression level ratio: YMR146C (TIF34) (100 micro gram/ml): 0.7194
- K-100/CK expression level ratio: YNR019W (ARE2) (100 micro gram/ml): 2.854
- K-100/CK expression level ratio: YOL067C (RTG1) (100 micro gram/ml): 27.37
- K-100/CK expression level ratio: YOR127W (RGA1) (100 micro gram/ml): 2.57
- K-100/CK expression level ratio: YOR139C (SFL1) (100 micro gram/ml): 11.76
- K-100/CK expression level ratio: YOR237W (HES1) (100 micro gram/ml): 1358
- K-100/CK expression level ratio: YOR337W (TEA1) (100 micro gram/ml): 4.823
- K-100/CK expression level ratio: YPL028W (ERG10) (100 micro gram/ml): 1.699
- K-100/CK expression level ratio: YPL119C (DBP1) (100 micro gram/ml): 2.197
- K-100/CK expression level ratio: YPL226W (100 micro gram/ml): 2.556
- K-100/CK expression level ratio: YPL237W (SUI3) (100 micro gram/ml): 2.548
- K-100/CK expression level ratio: YPR080W (TEF1) (100 micro gram/ml): 1.859
